Experimental data published in patent publication US8795633B2, “Multiphoton in vivo flow cytometry method and device” (Purdue Research Foundation, priority 2005, dated 2014).
One block for each molecule: values may come before it. *1 amine or outer side, *2 acyl side, *3 side chain or, on linkers, in order; H or OH if unused. Where a SMILES comes first, the peptide text is derived from it. Bridges are numbered along the chain shown (N, C = ends). [ ]: non-standard residue; d: D form. The star is where a group is joined. ξ: configuration not given here. X1 = O=C(O)CNC(=O)C(CCCCNC(=S)Nc1ccc(-c2c3ccc(=O)cc-3oc3cc(O)ccc23)c(C(=O)O)c1)N*; X2 = O=C(C1CCN[c+]2c(N[*:1])cc3cc(O)c(O)cc3n21)[*:2]; ξOrn(N(OH)CHO) = NC(CCCN(O)C=O)C(=O)O; Glutaryl = O=C(CCCC(=O)[*:2])[*:1]

Experiments:
[1] = test system: Pseudomonas aeruginosa; test: FACS analysis of pyoverdine peptide fluorescein binding and competition; conditions: 0.1 μM conjugate; 100-fold excess free pyoverdine
Protocol: The x-axis indicates fluorescence intensity.
(§1) This procedure applies to Examples 25-27. For cell sorting assays, iron limited conditions were maintained by addition of dipyridyl to the culture (final concentration of […]). Cells were grown to mid-log phase (NB or LB broth), the siderophore conjugates added to 10-20 million CFU of bacterial cells to a final siderophore conjugate concentration of 2-3 uM (total volume=11 mL), and incubated for a period of 30 minutes. Competition was performed by adding a 100-fold excess of desferrioxamine (Yersinia) or pyoverdine PaA (Pseudomonas) to the cells 15 minutes prior to incubation with the siderophore conjugates. Fluorescently activated cell sorting (FACS) was performed on a FACS Caliber (BD Bio systems, Franklin Lakes, N.J.) cell sorter with both the forward scatter and side scatter in the log mode per manufactures guidelines for analyzing bacteria. Bacteria samples were diluted with PBS to achieve 200-400 counts per second.
Cell studies using FACS analysis and Pseudomonas aeruginosa were performed essentially as described under Example 25 (see FIG. 10) to assess binding and competition of this molecule (concentrations ranged from 1 μM to 1 nM).

[2] = test system: Yersinia enterocolitica; test: FACS analysis of desferrioxamine fluorescein binding and competition
Protocol: as §1
In this case, fluorescence shift indicates binding of the fluorescein conjugate to the siderophore receptor on the bacterial surface; whereas, adding excess non-labeled ligand (competition) reduces the number of free binding sites prior to conjugate incubation. […] It is interesting to note that this compound was iron unloaded and thus consistent with unloaded siderophore binding reported by Schalk et al., Mol. Microbiol. 39: 351-360 (2001).

[3] = biological target: T1, cell surface folate receptors (Mus musculus, UniProt P35846); test: Fluorescence measurement of binding to folate receptor positive M109 cells in culture
T1 construct: cell surface folate receptors on folate receptor positive M109 cells in culture; endogenous in cells; host or cells: M109 cells
Protocol: Texas Red C2-maleimide (Molecular Probes, Eugene, Oreg.) was dissolved in dimethyl sulfoxide (DMSO) (1 mg in 200 μl DMSO). A 1.4 molar equivalent (1 mg) of Folate-Cys was added to the solution and mixed for 4 hours at room temperature. Folate-Cys-Texas Red (Folate-Texas Red) was purified by reverse-phase HPLC on a C18 column at a flow rate of 1 ml/min. The mobile phase, consisting of 10 mM NH4HCO3 buffer, pH 7.0 (eluent A) and acetonitrile (eluent B), was maintained at a 99:1 A:B ratio for the first five minutes and then changed to 70:30 A:B in a linear gradient over the next 30 minutes followed by a 1:99 A:B linear gradient over the last 15 minutes. Folate-Cys-Texas Red eluted as two isomer peaks at 44.5 and 45.8 minutes. The product was confirmed by mass spectroscopy and the biologic activity was confirmed by fluorescence measurement of its binding to cell surface folate receptors on folate receptor positive M109 cells in culture.

T1 sequence (P35846 25-232): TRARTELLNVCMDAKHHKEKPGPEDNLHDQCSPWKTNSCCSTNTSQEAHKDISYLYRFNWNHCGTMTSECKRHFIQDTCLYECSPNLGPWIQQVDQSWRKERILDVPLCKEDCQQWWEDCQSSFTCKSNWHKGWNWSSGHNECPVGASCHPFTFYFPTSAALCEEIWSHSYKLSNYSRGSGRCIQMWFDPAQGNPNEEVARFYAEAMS

Compound: CC(O)C1NC(=O)C(CCCN(O)C=O)NC(=O)C(NC(=O)C(CCCN(O)C=O)NC(=O)C(CO)NC(=O)C(CCCNC(=N)N)NC(=O)C(CO)NC(=O)C2CCN[c+]3c(NC(=O)CCCC(=O)NC(CCC(=O)O)C(=O)NC(CCCCNC(=S)Nc4ccc(-c5c6ccc(=O)cc-6oc6cc(O)ccc56)c(C(=O)O)c4)C(=O)NCC(=O)O)cc4cc(O)c(O)cc4n32)CCCCNC(=O)C(C(C)O)NC1=O (stereo not shown) [Pyoverdine Peptide Fluorescein] ({X1-Glu-Glutaryl}-[X2]SRS[ξOrn(N(OH)CHO)]K[ξOrn(N(OH)CHO)]TT; lactam 6-C; configuration not given here)
- binding and competition [1]: competition using free pyoverdine was detected

Compound: CC(=O)N(O)CCCCCNC(=O)CCC(=O)NCCCCCNC(=O)CCC(=O)N(O)CCCCCNC(=S)Nc1ccc(-c2c3ccc(=O)cc-3oc3cc(O)ccc23)c(C(=O)O)c1 [desferrioxamine fluorescein]
- shift in fluorescence intensity with competition ([2]; competition with a 100-fold excess of desferrioxamine): 15%
- shift in fluorescence intensity ([2]; non-competed, 2 μM conjugate concentration, non-incubated control 1%): ~50%

- biologic activity (binding to cell surface folate receptors) [3]: confirmed
Compound: Nc1nc2ncc(CNc3ccc(C(=O)NC(CCC(=O)NC(CSC4CC(=O)N(CCNS(=O)(=O)c5ccc(C6=c7cc8c9c(c7Oc7c6cc6c%10c7CCCN%10CCC6)CCC[N+]=9CCC8)c(S(=O)(=O)[O-])c5)C4=O)C(=O)O)C(=O)O)cc3)nc2c(=O)[nH]1 (stereo not shown) [Folate-Cys-Texas Red]
